The values below come from paper PMC4287843 (ACS Chemical Biology, 2014).

Data set [1] concerns SMN2 mini-gene splicing in COS7 cells expressing r(CGG)60X. Nature of the data set: SMN2 alternative pre-mRNA splicing in FXTAS cell culture model. The class given is cell-based.
The target in another data set is r(CGG) repeats. Particulars: cited from earlier work.
Another data set deals with r(CGG)12-DGCR8Δ complex. The following applies: read-out: IC50 for disrupting binding of DGCR8Δ; in vitro; cited from earlier work.
Data set [2] addresses T1, DGCR8Δ (UniProt Q8WYQ5 493-720).
T1 sequence: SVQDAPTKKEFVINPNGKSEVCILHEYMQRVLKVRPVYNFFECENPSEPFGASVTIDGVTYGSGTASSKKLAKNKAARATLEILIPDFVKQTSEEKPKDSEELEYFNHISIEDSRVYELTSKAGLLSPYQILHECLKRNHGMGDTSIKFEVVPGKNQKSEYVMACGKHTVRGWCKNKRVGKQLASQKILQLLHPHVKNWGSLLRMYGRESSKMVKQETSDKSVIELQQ
Nature of the data set: EMSA.

Data set [3] addresses T1, DGCR8Δ. Nature of the data set: TR-FRET. In general terms: TR-FRET usually uses a lanthanide donor and a delayed reading to cut background.

Strand notation (5' to 3'): a small letter for the sugar, then the base; units joined by * are phosphorothioate-linked, units joined directly phosphodiester-linked; [ ] holds rarer units or linkages, { } end groups; capitals alone tell only the bases. m = 2'-O-methyl

In the case of “2’OMe-PS-(CUGCGCGUAUUAGUCUACAAGUAAGGGCU-ACGACCU) (mC*mU*mG*mC*mG*mC*mG*mU*mA*mU*mU*mA*mG*mU*mC*mU*mA*mC*mA*mA*mG*mU*mA*mA*mG*mG*mG*mC*mU*mA*mC*mG*mA*mC*mC*mU) [scrambled oligonucleotide]”, the “effect on SMN2 splicing defect” value in data set [1] (100 and 500 nM oligo (not 4 or 20 nM)) is “exacerbates splicing defects”. Take `Cc1c2cc[n+](CCN3CCCCC3)cc2c(C)c2c1[nH]c1ccc(O)cc12` [1a, 9-hydroxy-5,11-dimethyl-2-(2-(piperidin-1-yl)ethyl)-6H-pyrido[4,3-b]carbazol-2-ium]: on r(CGG) repeats, the Kd was 0.076 ± 0.004 µM. Moreover, in data set [1], the “fold less potent than 2H-5 for improving pre-mRNA splicing defects” value is on record as approximately 10 fold. Also, the IC50 in the data set with r(CGG)12-DGCR8Δ complex was 13 ± 0.4 µM. Consider CCGCCGCCGCCGCCGCCGCCGCCGCCGCCGCCGCCG (ssDNA) [d(CCG)12], for which the binding result with DGCR8Δ [2] is recorded as “no binding”. Regarding CGGCGGCGGCGGCGGCGGCGGCGGCGGCGGCGGCGG (structured_RNA) [r(CGG)12], the binding result in the data set with DGCR8Δ [3] is given as “binds”. Regarding CCGCCGCCGCCGCCGCCGCCGCCG (ssDNA) [d(CCG)8], the binding result with DGCR8Δ [2] is on record as “no binding”.

As a reminder, the Kd is the concentration at which binding is half-saturated. A word on the IC50: it is the point on the concentration scale where inhibition reaches its midpoint.
